Several values for one entry are separate records, joined by “and”; a condition that tells them apart may be missing. Identical values can stand only once.
test system: T47D cells; assay: T47D cell proliferation assay (BrdU incorporation); format: cell-based; settings: half-maximal decrease in trimegestone induced BrdU incorporation, read-out: Estimated IC50
Procedure: 3. T47D Cell Proliferation Assay
The objective of this assay is the determination of progestational and antiprogestational potency by using a cell proliferation assay in T47D cells. A compound's effect on DNA synthesis in T47D cells is measured.
DMEM:F12 (1:1) (GIBCO, BRL) supplemented with 10% (v/v) fetal bovine serum (not heat-inactivated), 10 U/ml penicillin, […] streptornycin, and 2 mM GlutaMax (GIBCO, BRL).
Minimum Essential Medium (MEM) (#51200-038GIBCO, BRL) phenol red-free supplemented with 0.5% charcoal stripped fetal bovine serum, 100 U/ml penicillin, […] streptornycin, and 2 mM GlutaMax (GIBCO, BRL).
Stock T47 D cells are maintained in growth medium. For BrdU incorporation assay, cells are plated in 96-well plates (Falcon, Becton Dickinson Labware) at 10,000 cells/well in growth medium. […]
At the end of BrdU labeling, the medium is removed and BrdU incorporation is measured using a cell proliferation ELISA kit (#RPN 250, Amersham Life Science) according to manufacturer's instructions. […] Then 25 μl of 1 M sulfuric acid is added to each well to stop color reaction and optical density is read in a plate reader at 450 nm within 5 min.
Square root-transformed data are used for analysis of variance and nonlinear dose response curve fitting for both agonist and antagonist modes. […] EC50 or IC50 values are calculated from the retransformed values. […]

| IC50 | Structure (SMILES) |
| --- | --- |
| 0.016 nM and 0.018 nM | CC#C[C@]1(O)CC[C@H]2[C@@H]3CCC4=CC(=O)CCC4=C3[C@@H](c3ccc(N(C)C)cc3)C[C@@]21C [RU486] |

same assay, conditions: half-maximal increase in BrdU incorporation, individual studies, read-out: Estimated EC50

| EC50 | Structure (SMILES) |
| --- | --- |
| 0.017 nM and 0.014 nM and 0.019 nM | C[C@H](O)C(=O)[C@@]1(C)CC[C@H]2[C@@H]3CCC4=CC(=O)CCC4=C3CC[C@@]21C [Trimegestone, trimegestone] |

test system: rat uterine decidualization; assay: Rat decidualization assay; format: in vivo; settings: average of dose-response curves, rat decidualization, s.c.
Procedure: 1. Rat decidualization assay
b. Animals (RACUC protocol #5002)
The animals are treated once daily for seven days.
Uteri are removed and trimmed of fat.
Body weight: Mean total animal body weight (default-kg)
Decidual response: [(D-C)/C]×100%

| Estimated average EC50 | Structure (SMILES) |
| --- | --- |
| 0.10 mg/kg, s.c. | C#C[C@]1(O)CC[C@H]2[C@@H]3CCC4=CC(=O)CC[C@@H]4[C@H]3C(=C)C[C@@]21CC [3-Ketodesogestrel, 3-ketodesogestrel] |
| 0.10 mg/kg, s.c. | C#C[C@]1(O)CC[C@H]2[C@@H]3CCC4=CC(=O)CC[C@@H]4[C@H]3CC[C@@]21CC [Levonorgestrel, levonorgestrel] |

same assay, conditions: decrease in EC50 progesterone (5.6 mg/kg) induced decidual response, rat, s.c.

| Estimated IC50 | Structure (SMILES) |
| --- | --- |
| 0.21 mg/kg, s.c. and 0.14 mg/kg, s.c. | CC#C[C@]1(O)CC[C@H]2[C@@H]3CCC4=CC(=O)CCC4=C3[C@@H](c3ccc(N(C)C)cc3)C[C@@]21C [RU486] |

same assay, conditions: ovariectomized female Sprague-Dawley rats, once daily for seven days, s.c.; individual studies

| Structure (SMILES) | Estimated EC50 for uterine wet weight |
| --- | --- |
| C#C[C@]1(O)CC[C@H]2[C@@H]3CCC4=CC(=O)CC[C@@H]4[C@H]3C(=C)C[C@@]21CC [3-Ketodesogestrel, 3-ketodesogestrel] | 0.10 mg/kg, s.c. and 0.06 mg/kg, s.c. and 0.11 mg/kg, s.c. |
| C#C[C@]1(O)CC[C@H]2[C@@H]3CCC4=CC(=O)CC[C@@H]4[C@H]3CC[C@@]21CC [Levonorgestrel, levonorgestrel] | 0.08 mg/kg, s.c. and 0.12 mg/kg, s.c. and 0.09 mg/kg, s.c. (2×) |
| CC(=O)O[C@]1(C(C)=O)CC[C@H]2[C@@H]3C[C@H](C)C4=CC(=O)CC[C@]4(C)[C@H]3CC[C@@]21C [MPA, medroxyprogesterone acetate] | 0.42 mg/kg, s.c. and 0.39 mg/kg, s.c. (2×) |
| CC(=O)[C@H]1CC[C@H]2[C@@H]3CCC4=CC(=O)CC[C@]4(C)[C@H]3CC[C@]12C [Progesterone, progesterone] | 5.50 mg/kg, s.c. |

test system: not given; assay: not given; settings: not given

| melting point | Structure (SMILES) |
| --- | --- |
| 211 to 215 °C | CC1(C)CC(=O)Nc2ccc(-c3cccc(Cl)c3)cc21 [6-(3-Chlorophenyl)-4,4-dimethyl-3,4-dihydro-1H-quinolin-2-one] |
| 188 to 189 °C | CC1OC(C)(C)Nc2ccc(-c3cccc([N+](=O)[O-])c3)cc21 (stereo not shown) [Compound 3, 6-(3-Nitro-phenyl)-2,2,4,-trimethyl-1,4dihydro-2H-benzo[d][1,3]oxazine] |
| 172 to 173 °C | CC1Nc2ccc(-c3ccc(C#N)s3)cc2C(C)(C)O1 (stereo not shown) [Example 13, 5-(2,4,4-Trimethyl-1,4-dihydro-2H-3,1-benzoxazin-6-yl)thiophene-2-carbonitrile] |
| 163 to 164 °C | CC1Nc2ccc(-c3cc(F)cc(C#N)c3)cc2C(C)(C)O1 (stereo not shown) [Example 14, 3-Fluoro-5-(2,4,4-trimethyl-1,4-dihydro-2H-3,1-benzoxazin-6-yl)benzonitrile] |
| 175 to 176 °C | CC1Nc2ccc(-c3csc(C#N)c3)cc2C(C)(C)O1 (stereo not shown) [Example 15, 4-(2,4,4-Trimethyl-1,4-dihydro-2H-3,1-benzoxazin-6-yl)thiophene-2-carbonitrile] |
| 145 to 146 °C | Cc1cc(C#N)sc1-c1ccc2c(c1)C(C)(C)OC(C)N2 (stereo not shown) [Example 16, 4-Methyl-5(2,4,4-trimethyl-1,4-dihydro-2H-3,1-benzoxazin-6-yl)thiophene-2-carbonitrile] |
| 128 to 129 °C | C[C@@H]1Nc2ccc(-c3cc(F)cc(C#N)c3)cc2[C@](C)(c2ccccc2)O1 [Example 17, 3-[(2R,4S)-2,4-Dimethyl-4-phenyl-1,4-dihydro-2H-3,1-benzoxazin-6-yl]-5-fluorobenzonitrile] |
| 201 to 202 °C | CC1Nc2ccc(-c3ccc(C#N)[nH]3)cc2C(C)(C)O1 (stereo not shown) [Example 20, 5-(2,4,4-Trimethyl-1,4-dihydro-2H-3,1-benzoxazin-6-yl)1H-pyrrole-2-carbonitrile] |
| 111 to 112 °C | CC1Nc2ccc(-c3csc(C#N)c3)cc2C2(CCCCC2)O1 (stereo not shown) [Example 26, 4-(2-Methylspiro[2H-3,1-benzoxazine-4,1′-cyclohexane]-6-yl)2-thiophenecarbonitrile] |
| 139 to 140 °C | CC1Nc2ccc(-c3cccc(F)c3)cc2C(C)(C)O1 (stereo not shown) [Example 27, 6-(3-Fluorophenyl)-2,4,4-trimethyl-1,4-dihydro-2H-3,1-benzoxazine] |
| 144 to 146 °C | CC1Nc2ccc(-c3cccc(Cl)c3)cc2C(C)(C)O1 (stereo not shown) [Example 28, 6-(3-Chlorophenyl)-2,4,4-trimethyl-1,4-dihydro-2H-3,1-benzoxazine] |
| 173 to 175 °C | CC1Nc2ccc(-c3ccc(F)c(Cl)c3)cc2C(C)(C)O1 (stereo not shown) [Example 29, 6(3-Chloro-4-fluorophenyl)-2,4,4-trimethyl-1,4dihydro-2H-3,1-benzoxazine] |
| 184 to 186 °C | CC1Nc2ccc(-c3ccc(F)c(C#N)c3)cc2C(C)(C)O1 (stereo not shown) [Example 30, 2-Fluoro-5-(2,4,4-trimethyl-1,4-dihydro-2H-3,1-benzoxazin-6-yl)benzonitrile] |
| 116 to 118 °C | CC1Nc2ccc(-c3coc(C#N)c3)cc2C(C)(C)O1 (stereo not shown) [Example 31, 4-(2,4,4-Trimethyl-1,4-dihydro-2H-3,1-benzoxazin-6-yl)-2-furonitrile] |
| 102 to 103 °C | CC1(C)OC(C(F)(F)F)Nc2ccc(-c3cc(F)cc(C#N)c3)cc21 (stereo not shown) [Example 32, 3-[4,4-Dimethyl-2-(trifluoromethyl)-1,4-dihydro-2H-3,1-benzoxazin-6-yl]-5-fluorobenzonitrile] |
| 97 to 98 °C | Cc1cc(C#N)sc1-c1ccc2c(c1)C(C)(C)OC(C(F)(F)F)N2 (stereo not shown) [Example 38, 5-[4,4-Dimethyl-2-(trifluoromethyl)-1,4-dihydro-2H-3,1-benzoxazin-6yl]-4-methylthiophene-2-carbonitrile] |
| 108 to 109 °C | CC1(C)OC(C(F)(F)F)Nc2ccc(-c3cccc(Cl)c3)cc21 (stereo not shown) [Example 39, 6-(3-Chlorophenyl)-4,4-dimethyl-2-(trifluoromethyl)-1,4-dihydro-2H-3,1-benzoxazine] |
| 190 to 192 °C | CC1(C)CC(=O)Nc2ccc(-c3cccc(F)c3)cc21 [Example 40, 6(3-Fluorophenyl)-4,4-dimethyl-3,4-dihydroquinolin-2(1H)-one] |
| 249 to 250 °C | CC1(C)CC(=O)Nc2ccc(-c3cc(F)cc(C#N)c3)cc21 [Example 41, 3-(4,4-Dimethyl-2-oxo-1,2,3,4-tetrahydroquinolin-6-yl)-5-fluorobenzonitrile] |
| 190 to 192 °C | CC1(C)CC(=O)Nc2ccc(-c3cccc(C#N)c3)cc21 [Example 42, 3-(4,4-Dimethyl-2-oxo-1,2,3,4-tetrahydroquinolin-6-yl)benzonitrile] |
| 209 to 211 °C | CC1(C)CC(=S)Nc2ccc(-c3cccc(F)c3)cc21 [Example 44, 6-(3-Fluorophenyl)-4,4-dimethyl-3,4-dihydroquinoline-2(1H)-thione] |
| 240 to 242 °C (dec.) | CC1(C)CC(=S)Nc2ccc(-c3cc(F)cc(C#N)c3)cc21 [Example 46, 3-(4,4-Dimethyl-2-thioxo-1,2,3,4-tetrahydroquinolin-6-yl)5-fluorobenzonitrile] |
| 125 to 127 °C | CC1(C2CC2)NC(=O)Nc2ccc(-c3cccc(Cl)c3)cc21 (stereo not shown) [drawing 34, R = H, 6-(3-Chlorophenyl)-4-cyclopropyl-4-methyl-3,4-dihydro-1H-quinazolin-2-one] |
| 193 to 194 °C | CN1C(=O)Nc2ccc(-c3cccc(Cl)c3)cc2C1(C)C1CC1 (stereo not shown) [drawing 34, R = Me, 6-(3-Chlorophenyl)-4-cyclopropyl-3,4-dimethyl3,4dihydro-1H-guinazolin-2-one] |

| Structure (SMILES) | melting point |
| --- | --- |
| CC1OC(C)(C)c2cc(-c3ccc(C#N)n3C(=O)OC(C)(C)C)ccc2N1C(=O)OCC1c2ccccc2-c2ccccc21 (stereo not shown) [Example 19, 9H-Fluoren-9-ylmethyl-6-[1-(tert-butoxycarbonyl)-5-cyano-1H-pyrrol-2-yl]-2,4,4-trimethyl-2H-3,1-benzoxazine-1(4H)-carboxylate] | 135 to 136 °C |
